# Entries after “also recorded” stand apart in the source; their conditions may differ. Read-outs that look alike come from different tables or passages of the source.
# Tests used:
# [1] = test system: patients with AML and myelodysplastic syndrome; conditions: cited from earlier work
# SOCS-1 gene expression = assay: Semi-quantitative RT-PCR of SOCS-1 expression in MM cell lines; assay type: cell-based, human; conditions: 1 μM for 96 hr
# Procedure: (§1) For gene expression studies, U266 and XG1 cells were incubated in complete culture medium with a final concentration of 1.0 μM 5-azacytidine (Sigma). After 4 days, drug-treated and untreated cells were harvested and subjected to RNA extraction. In order to assess the sensitivity to AG490, cell lines K562, U266 and XG1 were incubated with or without a final concentration of 50 μM AG490 for 4 days prior to analysis. For STAT3 phosphorylation analysis, cell lines U266 and XG1 were initially starved for 16 hr in culture medium supplemented with only 1% FCS and no cytokine. Cells were then washed in cold PBS and resuspended in their appropriate complete medium with or without 50 μM AG490 and samples were harvested for protein analysis after 1 hr and 24 hr.
# Total RNA was isolated using a commercially available kit (Qiagen) according to the manufacturer's instructions. Approximately 3 μg RNA per sample were reverse transcribed with SuperScript™ reverse transcriptase (Invitrogen). For PCR, 1 μl of the cDNA preparation was amplified using the following SOCS-1 primers: […]
# Reactions were hot-started at 95° C. for 5 min and held at 80° C. before addition of 1.25 U of Taq polymerase (Invitrogen Corp.). […]
# [2] = test system: B cell leukemia cells, in which JAK2 was constitutively activated; conditions: cited from earlier work
# [3] = test system: HCC cells exhibiting methylation silenced SOCS-1 gene expression; assay: Colony formation assay with AG490; assay type: cell-based, human; conditions: 5 μM AG490 for 3 weeks
# Procedure: For AG490 treatment, 1×10^4 cells were plated in 100 mm tissue culture dishes, and grown in complete medium in the absence or presence of 5 μM AG490 for 3 weeks. In some experiments, cells were treated with 25 μM AG490 for 3 hr or 24 hr.
# STAT3 [4] = assay: Western blot analysis of STAT3 tyrosine phosphorylation in HCC cell lines treated with AG490; assay type: cell-based, human; conditions: 25 μM AG490 for 3 hr or 24 hr
# Procedure: Cells at approximately 70% confluence were harvested and lysed on ice in a buffer containing 20 mM Tris (pH 8.0), 1% NONIDET P-40 detergent, 0.1% SDS, 150 mM NaCl, 50 mM NaF, 1 mM Na3VO4, 10 μg/ml leupeptin, 10 μg/ml aprotinin, 1 μg/ml pepstatin, and 1 mM phenylmethylsulfonyl fluoride. Following incubation for 30 min on ice, the lysates were cleared of debris by centrifugation at 15,000×g for 30 min. Eight hundred μg of protein lysates were incubated with 5 μg anti-JAK2 antibody (Upstate Biotechnology; Waltham Mass.) for 1 hr on ice. Thirty μl protein A+G (Oncogene Research Products; Boston Mass.) was added to the lysates and incubated for 1 hr at 4° C. with rotation.
# Immune complexes were recovered by centrifugation, washed 5 times with the lysis buffer, then boiled for 5 min in SDS-PAGE sample buffer. The samples were resolved by SDS-PAGE, and electroblotted onto a nitrocellulose membrane. The blot was blocked with 5% skim milk in PBS for 1 hr at room temperature (RT), then incubated with 1 μg/ml of anti-phosphotyrosine antibody (4G10; Upstate biotechnology) over night at 4° C.
# After several washes, a 1:5000 dilution of anti-mouse horseradish peroxidase-conjugated secondary antibody (Amersham Pharmacia Biotech) was added and incubated for 1 hr at RT. After several washes, the immunoreactive bands were visualized by an enhanced chemiluminescence substrate (Amersham Pharmacia Biotech) and exposed to HYPERFILM film (Amersham Pharmacia Biotech). The blot was stripped with a buffer composed of 62.5 mM Tris (pH 6.8), 2% SDS and 100 mM θ-mercaptoethanol at 50° C. for 30 min, washed, blocked with 5% milk in PBS, then re-probed with the anti-JAK2 antibody (Upstate Biotechnology).
# To analyze inhibition of STAT3 by AG490, cells were treated with 25 μM AG490 for 3 hr or 24 hr. Eighty μg total protein samples from drug treated and untreated cells were separated by SDS-PAGE, and analyzed by western blot analysis. Anti-phospho-STAT3 antibody (New England Biolabs) was used to detect tyrosine phosphorylation of STAT3 according to the conditions recommended by the manufacturer. […]
# STAT3 [5] = conditions: MM cell line XG2; cited from earlier work
# leukemic Sezary cells = conditions: cited from earlier work
# [6] = test system: normal haematopoietic progenitor cells; conditions: at concentrations similar to those used in the present studies; cited from earlier work
# KG1a = assay: Flow cytometric analysis of apoptosis in AML cell line; assay type: cell-based, human; conditions: 50 μM AG490, 96 hr; SOCS-1 CpG island methylated
# Procedure: (§2) HL60 cells were obtained from the American Type Culture Collection and KG1a cells from the German Collection of Microorganisms and Cell Cultures. Both cell lines were routinely cultured in IMDM (Invitrogen Corp.) with 20% FCS (Gemini Bio-Products). In order to assess the sensitivity to AG490, HL60 and KG1a cells were incubated with or without a final concentration of 50 μM AG490 (Sigma) for 96 hr prior to analysis.
# (§3) The percentage of apoptotic cells was determined by annexin V-binding and counterstaining with propidium iodide (PI), and fluorescence analysis was performed as described in Example 2.
# HL60 = assay: as above; assay type: cell-based, human; conditions: 50 μM AG490, 96 hr; SOCS-1 not methylated
# Procedure: as §2, §3
# ALL = conditions: cited from earlier work
# myeloma cells = conditions: cited from earlier work
# K562 cells = assay: Flow cytometric analysis of apoptosis (annexin V binding, PI counterstaining); assay type: cell-based, human; conditions: 50 μM AG490, 96 hr; no SOCS-1 methylation
# Procedure: as §1
# (§4) Apoptosis was assessed by annexin V binding and counterstaining with propidium iodide (PI) using a commercially available kit (Pharmingen) according to the manufacturer's instructions. Fluorescence analysis was performed on a BD LSR flow cytometer (Becton Dickinson).
# U266 cells = assay: as above; assay type: cell-based, human; conditions: 50 μM AG490, 96 hr; SOCS-1 hypermethylated
# Procedure: as §1, §4
# XG1 cells = assay: as above; assay type: cell-based, human; conditions: 50 μM AG490, 96 hr; SOCS-1 hypermethylated
# Procedure: as §1, §4
# normal liver cells = assay: Effect of AG490 on normal liver cells; assay type: cell-based
# STAT1 = assay: Western blot analysis of STAT tyrosine phosphorylation in SOCS-1 methylated leukemia cells; assay type: cell-based, human; conditions: cell line with SOCS-1 methylation, following treatment with AG490
# Procedure: (§5) Western blot analysis was performed as described in Example 1. Blots were stained using anti-phospho-STAT1, anti-phospho-STAT3 or anti-phospho-STAT5 antibody (New England Biolabs) to detect tyrosine phosphorylation of STAT protein. After removing the antibody, the blot was analyzed using anti-STAT1, anti-STAT3 or anti-STAT5 antibody, respectively (BD Transduction Laboratories).
# STAT3 [7] = assay: as above; assay type: cell-based, human; conditions: cell line with SOCS-1 methylation, following treatment with AG490
# Procedure: as §5
# STAT5 = assay: as above; assay type: cell-based, human; conditions: cell line with SOCS-1 methylation, following treatment with AG490
# Procedure: as §5
# STAT3 [8] = assay: Western blot analysis of STAT3 phosphorylation in MM cell lines; assay type: cell-based, human; conditions: 50 μM AG490, 1 hr and 24 hr
# Procedure: as §1
# Cell lysis and western blot analysis for STAT3 phosphorylation were performed as described in Example 1 (see, also, Yoshikawa et al., supra, 2001).
smiles,measurement,setting,value
Nc1ncn([C@H]2C[C@H](O)[C@@H](CO)O2)c(=O)n1 [5-aza-2′-deoxycytidine],clinical efficacy,[1],clinically effective
same,SOCS-1 gene expression,SOCS-1 gene expression; U266 cells,reactivation of SOCS-1 gene expression
same,SOCS-1 gene expression,SOCS-1 gene expression; XG1 cells,reactivation of SOCS-1 gene expression
N#C/C(=C/c1ccc(O)c(O)c1)C(=O)NCc1ccccc1 [AG490],growth of B cell leukemia cells,[2],suppress growth
same,growth suppression (number of colonies),[3],effectively suppressed the growth
same,STAT3 phosphorylation,"STAT3 [4]; HuH-1 cells (SOCS-1 inactivated, JAK2 activated)",time dependent reduction in STAT3 phosphorylation
same,STAT3 phosphorylation,"STAT3 [4]; SNU-387 cells (SOCS-1 inactivated, JAK2 activated)",time dependent reduction in STAT3 phosphorylation
same,STAT3 phosphorylation,STAT3 [4]; SOCS-1 expressing SNU-182 cells,but not in the SOCS-1 expressing SNU-182 cells
same,STAT3 phosphorylation,STAT3 [5],inhibition of STAT3 phosphorylation
same,apoptosis induction,leukemic Sezary cells,induces apoptosis
same,growth of normal haematopoietic progenitor cells,[6],does not suppress the growth
same,apoptosis induction,KG1a,induced apoptosis
same,apoptosis induction,HL60,no effect; also recorded: only weak induction of apoptosis
same,effectiveness in the treatment of ALL,ALL,effectiveness
same,apoptosis induction,myeloma cells,induces apoptosis
same,apoptosis induction,K562 cells,only a small effect
same,apoptosis induction,U266 cells,induced apoptosis
same,apoptosis induction,XG1 cells,induced apoptosis
same,effect on normal liver cells,normal liver cells,no effect
same,tyrosine phosphorylation of STAT1,STAT1,decreased
same,tyrosine phosphorylation of STAT3,STAT3 [7],decreased
same,tyrosine phosphorylation of STAT5,STAT5,no change
same,STAT3 phosphorylation,STAT3 [8]; U266 cells,inhibited STAT3 phosphorylation
same,STAT3 phosphorylation,STAT3 [8]; XG1 cells,only minor effects

# — patent US7749709B2, “SOCS-1 gene methylation in cancer” (The Johns Hopkins University School of Medicine, priority 2001, dated 2010)
